Experimental data as given in article PMC10732257 (Oncotarget, 2023).

Key:
MV-4-11 xenograft = experiment: Anti-tumor efficacy in subcutaneous MV-4-11 xenograft model; format: in vivo, female BALB/c nude mice; conditions: i.v.; GFH009 maleate 2.5, 5.0, 10.0 mg/kg QW or BIW; enitociclib 10.0 mg/kg QW; 3 weeks
Description: Figure 6 Anti-tumor efficacy of GFH009 in MV-4-11 xenograft model. MV-4-11 xenograft in female BALB/c nude mice were treated with GFH009 or enitociclib at the indicated doses (n = 8 mice per group). Results are expressed as mean ± SEM. ^* P < 0.05, ^**** P < 0.0001, two-way ANOVA with Dunnett’s multiple comparisons test analysis compared to Vehicle control group.
In vivo studies of tumor suppression were conducted in female BALB/c nude mice (Beijing Vital River Laboratory Animal Technology Co, Ltd., Changping, Beijing, China) bearing MV-4-11 xenografts (ATCC, Rockville, MD, USA). Each mouse was inoculated subcutaneously into the right dorsal-region with 5.0 × 10^6 cultured MV-4-11 cells in a total volume of 0.2 ml solution and allowed to develop xenograft tumors. Once tumor size had reached […], mice were divided into groups to receive 1 of 8 different treatment preparations dosed intravenously via the tail vein (Table 2). […] Enitociclib was administered as a 1.0 mg/mL solution in ultrapure water with 5% DMSO. Vehicle control was 50 mM PBS with no dissolved treatment drug.
(§1) Animals dosed BIW were given treatments on 2 consecutive days. Weights were recorded for each mouse every day and tumor volumes assessed 3 times a week. Total treatment administration occurred across 3 consecutive weeks.
Subcutaneous tumor volume (TV) was calculated as TV = (L × W^2)/2, where L was the length and W was the width of the tumor [11]. […] TGI was calculated as TGI (%) = (1 – avTi-0/ avCi-0)) × 100, where avTi-0 is the mean TV of the treatment group on a given day minus the mean TV of this treatment group on the day of group assignment, and avCi-0 is the mean TV of the vehicle control group on a given day minus the mean TV of the vehicle control group on the day of group assignment.
Tumor volume data was subjected to a base-10 logarithmic transformation and subsequent comparisons of TV across groups was made using two-way ANOVA (Dunnett’s multiple comparisons test). All plotting and statistical analyses were conducted using GraphPad Prism 6.00 (GraphPad Software).

[1] = Body weight change in MV-4-11 xenograft mice; format: in vivo, female BALB/c nude mice; conditions: GFH009 maleate QW or BIW; enitociclib 10.0 mg/kg QW; i.v.
Description: Figure 7 Effect of GFH009 on body weight change in MV-4-11 xenografts. Body weight change of MV-4-11 xenograft (Figure 6) are expressed as mean ± SEM. ^* […], ^** P < 0.01, ^**** P < 0.0001, two-way ANOVA with Dunnett’s multiple comparisons test analysis compared to the vehicle-treated (control) group.
as §1
Relative change in body weight (RCBW) was determined as RCBW (%) = (Bwi – BW0)/BW0 × 100, where Bwi is body weight of a given mouse on a given day, and BW0 is initial body weight on the day they were assigned to a treatment group.

COc1cc(F)ccc1-c1cc(Nc2cc(CS(C)(=N)=O)ccn2)ncc1F (centres unmarked) [enitociclib, reference compound]
Tumor growth (total volume) compared to the vehicle control (MV-4-11 xenograft): inhibited tumor growth | Body weight of the mice during the administration period [1]: decreased dramatically
